Measurements from US7393872B2, “Sodium channel blocker compositions and the use thereof” (Euro-Celtique S.A., priority 1999, dated 2008).

Columns and labels:
[1] = tested on: Chung model of neuropathic rats; assay: Tactile allodynia in the Chung model of peripheral neuropathy; type: in vivo, rat; conditions: given alone, FIG. 2
Procedure: Male Sprague-Dawley rats weighing between 200-225 g were anesthetized with halothane (1-3% in a mixture of 70% air and 30% oxygen) and their body temperature controlled during anesthesia through use of a homeothermic blanket. A 2-cm dorsal midline incision was then made at the L5 and L6 level and the para-vertibral muscle groups retracted bilaterally. L5 and L6 spinal nerves were then be exposed, isolated, and tightly ligated with 6-0 silk suture. A sham operation was performed exposing the contralateral L5 and L6 spinal nerves as a negative control.
Tactile Allodynia: Rats were transferred to an elevated testing cage with a wire mesh floor and allowed to acclimate for five to ten minutes. A series of Semmes-Weinstein monofilaments were applied to the plantar surface of the hindpaw to determine the animal's withdrawal threshold. […] This procedure was repeated with subsequent lesser filaments until there was no response and the lightest filament that elicited a response was recorded. […] For each animal, three measurements were made at every time point to produce an average withdrawal threshold determination. Tests were performed prior to and at 1, 2, and 24 hrs post drug administration. Tactile allodynia and mechanical hyperalgesia tests were conducted concurrently.

[2] = tested on: chronic pain; conditions: clinical trials; 15-20% of patients treated with placebo showed effectiveness; cited from earlier work

SMILES	tactile antiallodynia effect (withdrawal threshold) ([1]; 25 mg/kg s.c.)	patient population that showed effectiveness [2]	tactile antiallodynia effect (withdrawal threshold) ([1]; 1.25 mg/kg p.o.)
NCC1(CC(=O)O)CCCCC1 [gabapentin, 1-(aminomethyl)cyclohexaneacetic acid]	minimum or no effect	less than 50%	–
NC(=O)NN=Cc1ccc(Oc2ccc(F)cc2)cc1 [Co 102862, 4-(4′-fluoro-phenoxy)benzaldehyde semicarbazone]	–	–	moderate antiallodynia effect
